The text below walks through data of paper PMC9518246, “Design and synthesis of new indole drug candidates to treat Alzheimer’s disease and targeting neuro-inflammation using a multi-target-directed ligand (MTDL) strategy” (Journal of Enzyme Inhibition and Medicinal Chemistry, 2022).

For experiment [1], the target named is BuChE (Homo sapiens, UniProt P06276). The experiment can be described thus: biochemical. Particulars: modified Ellman; read-out: BuChE inhibitory activity IC50. The procedure:
(§1) The effects of twenty synthetic compounds were evaluated for AChE and BuChE inhibition using the modified method of Ellman et al.[33] […] AChE and BuChE are found in the brains of mammals. Genetically, structurally, and kinetically, the two kinds vary. In the human brain, BuChE is found in glial cells and neurons as well as in plaques and tangles in AD patients. […] BuChE may replace AChE by hydrolysing brain acetylcholine in some conditions, such as in mice nullizygote for AChE or in AD patients in advanced stages of the disease[34]^,[35].

Experiment [2] deals with AChE (Homo sapiens, UniProt P22303). Briefly: biochemical. Conditions: modified Ellman; read-out: AChE inhibitory activity IC50. The method, then: as §1
AChE, sequence (P22303 32-614): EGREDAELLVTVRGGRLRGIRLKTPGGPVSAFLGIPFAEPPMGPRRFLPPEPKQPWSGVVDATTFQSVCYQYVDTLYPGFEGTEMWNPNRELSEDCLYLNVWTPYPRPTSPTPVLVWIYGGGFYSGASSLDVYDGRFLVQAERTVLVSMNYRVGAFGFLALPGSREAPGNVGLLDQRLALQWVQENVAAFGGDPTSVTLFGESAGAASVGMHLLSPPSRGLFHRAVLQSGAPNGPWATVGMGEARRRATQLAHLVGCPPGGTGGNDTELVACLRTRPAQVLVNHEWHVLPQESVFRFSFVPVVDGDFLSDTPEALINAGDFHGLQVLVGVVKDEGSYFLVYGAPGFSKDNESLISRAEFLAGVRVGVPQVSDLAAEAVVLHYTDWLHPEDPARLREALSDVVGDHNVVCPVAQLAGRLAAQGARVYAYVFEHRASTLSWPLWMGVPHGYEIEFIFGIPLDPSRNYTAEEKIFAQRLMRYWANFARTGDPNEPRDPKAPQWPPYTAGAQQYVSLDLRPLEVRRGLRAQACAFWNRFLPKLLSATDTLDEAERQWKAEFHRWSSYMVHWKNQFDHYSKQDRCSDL
Experiment [3] has as its system NO production in LPS-induced BV2 microglia cell lines. The experiment can be described thus: Nitric oxide (NO) assessment in LPS-induced BV2 microglia. The format is cell-based. Particulars: positive control 6.42 pg/mL. The method, then: In AD, increased production of vascular NO, a highly neurotoxic mediator in the CNS, may contribute to the vulnerability of neurons to injury and cell death.
(§2) LPS was the used positive control.
NO plays an important role in neurotransmission, vascular regulation, immune response, and apoptosis. NO is rapidly oxidised to nitrite and nitrate which are used to quantitate NO. NO was estimated using the Abcam ELISA kit (catalog No. ab65328). Briefly, enzyme was added to cell lysate, followed with cofactor and incubated at room temperature for 60 min, after that Griess reagent was added and incubated at room temperature for 10 min., finally optical density was measured at 540 nm.
Microglia cell Line, BV-2, human neuroblastoma (SH-SY5Y), and normal hepatic (THLE2) cells were obtained from American Type Culture Collection, cells were cultured using DMEM (Invitrogen/Life Technologies, Carlsbad, CA) supplemented with 10% FBS (Hyclone), 10 µg/mL of insulin (Sigma, St. Louis, MO), and 1% penicillin-streptomycin. All of the other chemicals and reagents were from Sigma, or Invitrogen. Plate cells (cells density 1.2 − 1.8 × 10,000 cells/well) in a volume of 100 µL complete growth medium + 100 µL of the tested compounds per well in a 96-well plate for 24 h before the MTT assay.

Experiment [4] relates to IL-1β production in LPS-induced BV2 microglia cell lines. The experiment can be described thus: IL-1β assessment in LPS-induced BV2 microglia (ELISA). The format is cell-based. The method, then:
IL-1β is a pro-inflammatory cytokines involved in the pathogenesis of AD[40]. So, activity of 5b and 6b derivatives were evaluated against LPS-induced BV2 microglia cell lines production of IL-1β. They induced a decrease in IL-1β level to about 5% and 48%, sequentially, as compared to a positive control (Figure 5).
as §2
For IL-1β, this assay employs the quantitative sandwich enzyme immunoassay technique. A monoclonal antibody specific for human IL-1β has been pre-coated onto a micro plate. Standards and samples are piped into the wells and any IL-1β present is bound by the immobilised antibody. After washing away any unbound substances, an enzyme-linked polyclonal antibody specific for human IL-1β is added to the wells. Following a wash to remove any unbound antibody-enzyme reagent, a substrate solution is added to the wells and colour develops in proportion to the amount of IL-1β bound in the initial step. The colour development is stopped and the intensity of the colour is measured, the method of assessment was performed as instructed in the IL-1 β R&D system ELISA kit (catalog No. DLB50).
(In general: In an ELISA, binding on a coated surface is turned into a signal by an enzyme label.)

Experiment [5] relates to COX-2 production in LPS-induced BV2 microglia cell lines. The experiment can be described thus: COX-2 assessment in LPS-induced BV2 microglia (ELISA). Type of experiment: cell-based. The procedure:
Previously, it was reported that COX-2 is a key mediator in the inflammatory response and may play a role in neurodegeneration.
as §2
For COX-2, all reagents, samples, and standards were prepared as Kit instructions, then 100 μl of standard or sample were added to each well, incubated 2.5 h at room temperature. Then 100 μl of prepared biotin antibody was added to each well, incubated an hour at room temperature. After that 100 μl of prepared Streptavidin solution was added. Then it was incubated for 45 min at room temperature. An aliquot of 100 μl TMB One-Step Substrate Reagent was added to each well, incubated 30 min at room temperature, 50 μL stop solution added to each well. Finally, the optical density was read at 450 nm immediately.

The subject of experiment [6] is TNF-α production in LPS-induced BV2 microglia cell lines. The experiment can be described thus: TNF-α assessment in LPS-induced BV2 microglia (ELISA). The format is cell-based. The procedure:
TNF-α signalling exacerbates both Aβ and tau pathologies in vivo, according to several lines of evidence based on genetic and pharmacological modifications.
as §2
For TNF-α, cell lysate was used to assess TNF-α using the MyBioSource ELISA kit (Catalog No: MBS2502004). This assay employs the quantitative sandwich enzyme immunoassay technique. Briefly, 100 µl of the samples were added to each well. Incubate for 90 min at 37 °C, and immediately add 100 μl of Biotinylated Detection Ab working solution to each well. Incubate for 1 h at 37 °C, then add 350 µl of wash buffer to each well, 100 μl of HRP Conjugate working solution to each well was added, incubated for 30 min at 37 °C. Add 90 μl of Substrate Reagent to each well. Incubate for about 15 min at 37 °C. Then, 50 μl of Stop Solution was added to each well. Finally, the optical density of each well was detected at 450 nm.

Experiment [7] concerns the target T1, Aβ1–42 (Homo sapiens, UniProt P05067).
T1 construct: purchased BioVision K570-100
The experiment can be described thus: Inhibition of Aβ1-42 self-induced aggregation (BioVision ligand screening kit). Type of experiment: biochemical. Particulars: µM. An excerpt:
Screening Aβ42 ligands that could prevent aggregation is critical for developing potential therapeutic treatments. In BioVision’s Beta-Amyloid 1–42 (Aβ42) Ligand Screening kit, a dye binds to the beta-sheets of an aggregated amyloid peptide resulting in an intense fluorescent product at wave length 450 nm using a BIOLINE ELISA reader. In the presence of an Aβ42 ligand, this reaction is impeded/abolished resulting in a decrease or total loss of fluorescence. This assay is useful in screening Aβ42 ligands for developing potential therapeutic agents against AD[42]. The assessment was performed according to BioVision’s Beta-Amyloid 1–42 (Aβ42) Ligand Screening Kit Catalog No. K570-100.

Experiment [8] deals with IL-1β production. Also noted: method as in PMID 21295616. Conditions: read-out: suppression of IL-1β production IC50; cited from earlier work.

T1 sequence (P05067 672-713 limits assumed): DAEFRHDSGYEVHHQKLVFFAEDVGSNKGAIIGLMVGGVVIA
BuChE, sequence (P06276 29-602): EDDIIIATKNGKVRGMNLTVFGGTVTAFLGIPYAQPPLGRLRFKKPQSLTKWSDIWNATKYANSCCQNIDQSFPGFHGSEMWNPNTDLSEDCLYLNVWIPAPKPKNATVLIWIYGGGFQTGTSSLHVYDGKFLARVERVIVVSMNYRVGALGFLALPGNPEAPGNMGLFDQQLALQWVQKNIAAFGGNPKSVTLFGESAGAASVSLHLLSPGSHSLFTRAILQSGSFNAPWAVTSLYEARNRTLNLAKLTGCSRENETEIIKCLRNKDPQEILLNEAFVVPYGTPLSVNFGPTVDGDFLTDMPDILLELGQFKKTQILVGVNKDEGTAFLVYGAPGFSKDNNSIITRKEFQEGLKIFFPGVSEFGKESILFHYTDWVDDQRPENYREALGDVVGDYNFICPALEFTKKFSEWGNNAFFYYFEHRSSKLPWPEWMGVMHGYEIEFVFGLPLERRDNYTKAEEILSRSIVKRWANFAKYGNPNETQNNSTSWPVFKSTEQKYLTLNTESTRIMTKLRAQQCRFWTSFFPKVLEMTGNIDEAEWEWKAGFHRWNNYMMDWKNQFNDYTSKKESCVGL

The term IC50 denotes the midpoint of a concentration-inhibition curve. For the molecule `CS(=O)(=O)n1cc(/C=C/C(=O)c2ccc(NC(=O)CN3CCC(Cc4ccccc4)CC3)cc2)c2ccccc21` [Compound 6b, (E)-2–(4-Benzylpiperidin-1-yl)-N-{4-[3–(1-(methylsulfonyl)-1H-indol-3-yl)acryloyl]phenyl}acetamide], the IC50 was determined as 80.4 nM in experiment [1], 49.3 nM in experiment [2] and 4.94 µM in experiment [7]. The same molecule registered an NO level in experiment [3] of 4.46 pg/mL. The “decrease in IL-1β level to about, as compared to a positive control” value in experiment [4] is listed as around 48%. Also, the “decrease in COX-2 levels as compared to a positive control” value in experiment [5] is on record as around 14%. Also, the “decrease in TNF-α levels to, compared to positive control” value in experiment [6] worked out at 67%.
For `Cc1cc(-c2ccccc2)nnc1C(=O)N1CCN(c2ncccn2)CC1` [GIBH-130], in experiment [8], the IC50 was 3.4 nM.
